Results from paper PMC7024211, “Antifouling Napyradiomycins from Marine-Derived Actinomycetes Streptomyces aculeolatus” (Marine Drugs, 2020).
≈ marks a conversion by molar mass, not a printed value.

How the values were obtained:
Daphnia magna [1] = conditions: experimental data ref Tisler and Zagorc-Koncan, 2003; cited from earlier work
Daphnia magna [2] = conditions: experimental data ref Tisler and Zagorc-Koncan, 2003; cited from earlier work; remark: listed apart in the source
[3] = cited from earlier work
Oral rat/rabit = conditions: ref Acros Organics safety data sheet; cited from earlier work
Orcorhynchus mykiss = conditions: experimental data ref Tisler and Zagorc-Koncan, 2003; cited from earlier work
Scenedesmus quadricauda = conditions: experimental data ref Tisler and Zagorc-Koncan, 2003; cited from earlier work
M. hydrocarbonoclasticus [4] = assay: Biofilm inhibition assay (crystal violet); assay type: cell-based, Marinobacter hydrocarbonoclasticus
Experimental: (§1) In a 96-well plate, biofilm grown cultures of M. hydrocarbonoclasticus and C. marina were incubated with napyradiomycins (1–12) at a concentration of 31.25 µg/mL. After discarding the media, biofilm inhibition was determined from OD600 measurements of crystal violet stained cells resuspended from the plate bottom with acetic acid.
(§2) Five marine bacterial species were used as models to assess antimicrofouling activity. The biofilm-forming marine bacteria Marinobacter hydrocarbonoclasticus DSM 8798 (ATCC 49840), Cobetia marina DSM 4741, Phaeobacter inhibens DSM 17,395, and Pseusooceanicola batsensis DSM 15,984 were obtained from DSMZ (Leibniz Institute DSMZ—German collection of Microorganisms and Cell Cultures) and Micrococcus luteus. Cultures were routinely grown in liquid marine broth (Carl Roth GmbH, Karlsruhe, Germany) with agitation (180 rpm) or on agar-supplemented marine broth, at 28 °C (M. hydrocarbonoclasticus and C. marina) or 30 °C (P. inhibens and P. batsensis). M. luteus was maintained in Brain Heart Infusion broth (BHI, Becton Dickinson, GmbH, Heidelberg, Germany) with agitation (180 rpm) or on agar-supplemented BHI, at 37 °C.
(§3) The antibiofilm activity of napyradiomycins (1–12) against the five marine bacterial species was assessed in 96-well polystyrene flat bottom microplates (Nunclon Delta Surface, Thermo Scientific, Roskilde, Denmark) as previously reported. For initial screening, bacterial overnight cultures were diluted to an optical density (OD600nm) value of 0.2 and incubated statically at 28 °C (M. hydrocarbonoclasticus, C. marina), 30 °C (P. inhibens, P. batsensis) or 37 °C (M. luteus) in the 96-well microplate in the presence or absence of 31.25 µg/mL of napyradiomycins, solubilized in DMSO. After 24 h (M. hydrocarbonoclasticus, C. marina) or 48 h (P. batsensis, P. inhibens, M. luteus) incubation, the OD600nm was determined. The planktonic cells and media were discarded, and the wells were washed twice with deionized water. The biofilm was fixed for 1 h at 60 °C and stained with crystal violet 0.06% for 10 min. The dye was discarded, and the wells were again washed twice with deionized water. The stained biofilm was solubilized with 30% acetic acid and the OD600nm was determined. […] The percentage of biofilm inhibition was calculated as the amount of biofilm relative to that of the bacterial species without added compounds (with the same amount of DMSO added). CuSO4 (5 μM), a potent antifouling agent used in antifouling paints, was used as reference.
(§4) All assays were performed in triplicate, and results are representative of the average and standard error of the mean (SEM). Statistical analysis was performed in GraphPad Prism 8.0.2, using one-way ANOVA followed by a Dunnett’s multiple comparisons test against the control (species grown with the same amount of DMSO added).

P. batsensis [5] = assay: Biofilm inhibition assay (crystal violet); assay type: cell-based, Pseudooceanicola batsensis; conditions: CuSO4 5 μM reference
Experimental: as §1, §2, §3, §4

C. marina [6] = assay: Biofilm inhibition assay (crystal violet); assay type: cell-based, Cobetia marina
Experimental: as §1, §2, §3, §4

C. marina [7] = assay: Bacterial growth inhibition assay (OD600nm); assay type: cell-based, Cobetia marina
Excerpt: as §2
(§5) The antibacterial activity of the napyradiomycins (1–12) was assessed in 96-well polystyrene flat bottom microplates (Nunclon Delta Surface, Thermo Scientific, Roskilde, Denmark) following previously reported procedures. […] After 24 h (M. hydrocarbonoclasticus, C. marina) or 48 h (P. batsensis, P. inhibens, M. luteus) incubation, the OD600nm was determined (Molecular Devices, Spectra Max 190). […] The percentage of growth inhibition was calculated as the amount of growth relative to that of the bacterial species without added compounds (with the same amount of DMSO added). CuSO4 (5 μM), a potent antifouling agent used in antifouling paints, was used as reference.
as §4, with “8.0.2 (San Diego, CA, USA),” for “8.0.2,”

P. inhibens [8] = assay: Bacterial growth inhibition assay (OD600nm); assay type: cell-based, Phaeobacter inhibens; conditions: CuSO4 5 μM reference
Experimental: (§6) As a first screening approach, liquid cultures of M. hydrocarbonoclasticus, and C. marina in a 96-well format were analyzed for bacterial growth inhibition by percent decrease in OD600 after incubation with napyradiomycins (1–12) at 31.25 µg/mL.
Five marine bacterial species were used as models to assess antimicrofouling activity. The biofilm-forming marine bacteria Marinobacter hydrocarbonoclasticus DSM 8798 (ATCC 49840), Cobetia marina DSM 4741, Phaeobacter inhibens DSM 17,395, and Pseusooceanicola batsensis DSM 15,984 were obtained from DSMZ (Leibniz Institute DSMZ—German collection of Microorganisms and Cell Cultures) and Micrococcus luteus. […]
as §5, with “CuSO4 (5 μM), a potent antifouling agent used in antifouling paints, was used as reference.” left out

M. luteus [9] = assay: Biofilm inhibition assay (crystal violet); assay type: cell-based, Micrococcus luteus; conditions: CuSO4 5 μM reference
Experimental: as §1, §2, §3, §4

P. inhibens [10] = assay: Biofilm inhibition assay (crystal violet); assay type: cell-based, Phaeobacter inhibens; conditions: CuSO4 5 μM reference
Experimental: as §1, §2, §3
All assays were performed in triplicate, and results are representative of the average and standard error of the mean (SEM). […]

M. luteus [11] = assay: Bacterial growth inhibition assay (OD600nm); assay type: cell-based, Micrococcus luteus; conditions: CuSO4 5 μM reference
Excerpt: as §2, §5
as §4, with “8.0.2 (San Diego, CA, USA),” for “8.0.2,”

M. hydrocarbonoclasticus [12] = assay: Bacterial growth inhibition assay (OD600nm); assay type: cell-based, Marinobacter hydrocarbonoclasticus
Experimental: as §6, §2
(§7) The antibacterial activity of the napyradiomycins (1–12) was assessed in 96-well polystyrene flat bottom microplates (Nunclon Delta Surface, Thermo Scientific, Roskilde, Denmark) following previously reported procedures. For initial screening, bacterial overnight cultures were diluted to an optical density (OD600nm) of 0.2 and incubated statically at 28 °C (M. hydrocarbonoclasticus, C. marina), 30 °C (P. inhibens, P. batsensis) or 37 °C (M. luteus) in a 96-well microplate in the presence or absence of 31.25 µg/mL of the napyradiomycins, solubilized in DMSO. After 24 h (M. hydrocarbonoclasticus, C. marina) or 48 h (P. batsensis, P. inhibens, M. luteus) incubation, the OD600nm was determined (Molecular Devices, Spectra Max 190). […] The percentage of growth inhibition was calculated as the amount of growth relative to that of the bacterial species without added compounds (with the same amount of DMSO added). CuSO4 (5 μM), a potent antifouling agent used in antifouling paints, was used as reference.
as §4, with “8.0.2 (San Diego, CA, USA),” for “8.0.2,”

P. batsensis [13] = assay: Bacterial growth inhibition assay (OD600nm); assay type: cell-based, Pseudooceanicola batsensis; conditions: CuSO4 5 μM reference
Experimental: as §6, §2, §7
as §4, with “8.0.2 (San Diego, CA, USA),” for “8.0.2,”

[14] = system: M. galloprovincialis plantigrade larvae; assay: Mussel plantigrade larvae settlement, 15 h acute exposure assay; assay type: in vivo; conditions: 95% LCL, UCL in brackets
Experimental: (§8) Mussel (M. galloprovincialis) adhesive larvae (plantigrades) were used to assess in vivo the antifouling activity of napyradiomycins (1–12) towards macrofouling. Juvenile mussel aggregates were collected at the intertidal rocky shore during low spring tides, at Memória beach, Matosinhos, Portugal (41°13′59″ N; 8°43′28″ W). At the laboratory, immediately before the bioassays, mussel plantigrade larvae were screened and isolated from the juvenile aggregates using a binocular microscope (Olympus SZX2-ILLT, Hamburg, Germany) and washed with filtered seawater to remove organic debris. Only competent plantigrade larvae (those showing foot exploratory behavior) were selected and used in the exposure bioassays following previously validated procedures. Plantigrades were exposed in 24-well polystyrene plates for 15 h in the darkness at 18 °C. DMSO was used as solvent for crude extracts, fractions and pure compounds stock and working solutions. Working solutions were prepared by successive dilutions of stock solutions in DMSO and then diluted in filtered seawater to obtain the test solutions. DMSO concentration in test solutions was always 0.1%. Four well replicates were used per condition with five larvae per well. Two negative controls, one with ultra-pure water and the other with DMSO 0.1% were included in all bioassays, as well as a positive control with 5 μM CuSO4 (a potent antifouling agent). Anti-settlement bioactivity was determined by the presence/absence of fixed byssal threads produced by each individual larvae for all the conditions tested. […] Chi-square Pearsons goodness-of-fit test was applied to data in order to determine EC50. Significance was considered at p < 0.01 for all analyses, and 95% lower and upper confidence limits [95% LCL; UCL] were presented. Therapeutic ratio (LC50/EC50) was used to evaluate the effectiveness vs. toxicity of compounds [19, 21].

[15] = as above; assay type: in vivo; conditions: Mytilus galloprovincialis (mussel, plantigrade larvae), in vivo, no mortality at highest tested concentration 12 µg/mL
Experimental: as §8

[As] [Arsenic]
Chronic toxicity Daphnia magna 21 day NOEC (Daphnia magna [1]): 1.85 mg/L | Aquatic toxicity Daphnia magna EC50 48 hour (Daphnia magna [2]): 2.5 mg/L | ATE category [3]: 2 (category 2, 5 < ATE ≤ 50 mg/Kg) | Acute toxicity Oral rat/rabit LD50 (Oral rat/rabit): 12 mg/kg | Aquatic toxicity Fish Orcorhynchus mykiss 96 hour LC50 (Orcorhynchus mykiss): 15.3 mg/L | Aquatic toxicity Alga Scenedesmus quadricauda 72 hour IC50 (Scenedesmus quadricauda): 34.7 mg/L

O=S(=O)([O-])[O-].[Cu+2] [CuSO4, reference compound]
biofilm inhibition M. hydrocarbonoclasticus (M. hydrocarbonoclasticus [4]; CuSO4 5 μM reference): not inhibited | % biofilm inhibition P. batsensis (P. batsensis [5]): 41.4 ± 0.9% | biofilm inhibition C. marina (C. marina [6]; CuSO4 5 μM reference): not inhibited | growth inhibition C. marina (C. marina [7]; CuSO4 5 μM reference): not inhibited | % growth inhibition P. inhibens (P. inhibens [8]): 66.2 ± 5.6% | biofilm inhibition M. luteus (M. luteus [9]): not inhibited | % biofilm inhibition P. inhibens (P. inhibens [10]): 12.9 ± 6.4% | growth inhibition M. luteus (M. luteus [11]): not inhibited | % growth inhibition M. hydrocarbonoclasticus (M. hydrocarbonoclasticus [12]; CuSO4 5 μM reference): 35.8 ± 0.8% | % growth inhibition P. batsensis (P. batsensis [13]): 44.8 ± 6.3%

C=C1CCC(Cl)C(C)(C)C1C[C@@]12OC(C)(C)[C@H](Cl)C=C1C(=O)c1c(cc(O)c(C)c1O)C2=O (some centres unmarked) [Napyradiomycin 12, 4-dehydro-4a-dechloro-napyradiomycin A80915A]
inhibition at 31.25 µg/mL (M. hydrocarbonoclasticus [4]; Marinobacter nauticus, 31.25 µg/mL, read-out: % Biofilm Inhibition ± SEM M. hydrocarbonoclasticus): 33.7 ± 5.1% | % Biofilm Inhibition ± SEM C. marina (C. marina [6]; 31.25 µg/mL): N.I. | % growth inhibition C. marina (C. marina [7]; 31.25 µg/mL): did not inhibit growth | EC50 [Conf. limits] larval settlement [14]: 0.947 [0.586; 1.473] µg/mL | EC50 ([14]; Mytilus galloprovincialis, 15 h, read-out: EC50 [Conf. limits] larval settlement): 0.95 mg/L (≈ 1.93 µM) | LC50 at 15 h [15]: > 12 mg/L | % growth inhibition M. hydrocarbonoclasticus (M. hydrocarbonoclasticus [12]; 31.25 µg/mL): did not inhibit growth
